Earlier results in patent publication US6482309B1, “Electrolytic generation of nascent iodine as a method of treatment and for the prevention of infections associated with medical implant devices” (OxiBio, Inc., priority 1999, dated 2002).

Test system: bacteria and viruses

For `II` [free iodine, iodine], the “level of free iodine required for efficient microbial killing” value is given as ~2 ppm.
